From ChEMBL document CHEMBL4325906, “Anti-inflammatory activity of triazine derivatives: A systematic review” (Eur J Med Chem, 2019)
pIC50: −log10 of the molar value. Values belong to the compound of their own block, whether it stands above or below them.

Key:
[1] = biological target: T1, Prostaglandin G/H synthase 2 (Homo sapiens) (UniProt P35354); details: Blood, at 10 µM
T1 sequence (whole entry): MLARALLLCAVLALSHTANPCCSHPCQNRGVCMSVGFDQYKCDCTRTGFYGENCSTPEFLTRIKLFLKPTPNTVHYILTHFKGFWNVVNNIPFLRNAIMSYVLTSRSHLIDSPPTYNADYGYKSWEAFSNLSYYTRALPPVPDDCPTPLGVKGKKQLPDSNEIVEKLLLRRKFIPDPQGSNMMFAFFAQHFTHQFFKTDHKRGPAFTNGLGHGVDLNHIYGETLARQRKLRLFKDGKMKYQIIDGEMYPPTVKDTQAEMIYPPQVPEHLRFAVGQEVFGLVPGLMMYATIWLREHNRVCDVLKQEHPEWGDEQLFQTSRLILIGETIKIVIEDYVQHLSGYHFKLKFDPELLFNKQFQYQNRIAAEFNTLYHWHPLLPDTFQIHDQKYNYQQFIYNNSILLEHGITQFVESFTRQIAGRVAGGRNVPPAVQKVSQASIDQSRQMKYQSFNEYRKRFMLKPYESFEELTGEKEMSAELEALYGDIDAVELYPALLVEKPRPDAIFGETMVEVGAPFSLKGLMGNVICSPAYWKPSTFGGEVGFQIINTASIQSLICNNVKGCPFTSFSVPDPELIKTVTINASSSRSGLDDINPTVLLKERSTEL
Description: Inhibition of COX2 in LPS-induced human whole blood at 10 uM after 24 hrs by EIA relative to control

Mus musculus = assay: Anti-inflammatory activity in formalin-induced Swiss albino mouse assessed as reduction in paw edema volume at 10 mg/kg, ip pretreated for 30 mins followed by formalin addition relative to control; assay type: functional; set-up: scale not given: the % may be the effect or the level left
[2] = In vitro anti-inflammatory activity at 100 mg/ml incubated for 15 mins followed by heating for 10 mins and cooling by albumin denaturation assay relative to control
[3] = biological target: T2, Prostaglandin G/H synthase 2 (Homo sapiens, UniProt P35354); assay: Inhibition of recombinant human COX2 assessed as decrease in PGE2 release after 10 mins by ELISA
T2 sequence (P35354 whole entry): T1 sequence (whole entry)

[4] = Selectivity ratio of IC50 for ovine COX1 to IC50 for recombinant human COX2
Rattus norvegicus [5] = assay: Anti-inflammatory activity in carrageenan-induced Swiss albino rat assessed as reduction in paw edema by measuring swelling thickness at 10 ml/kg, po pretreated for 1 hr followed by carrageenan addition and measured up to 6 hrs at 1 hr interval relative to control; assay type: functional; set-up: scale not given: the % may be the effect or the level left
Rattus norvegicus [6] = assay: Anti-inflammatory activity in carrageenan-induced albino rat assessed as reduction in paw edema volume at 20 umol/kg, po measured at 1 hr intervals up to 4 hrs relative to control; assay type: functional; set-up: scale not given: the % may be the effect or the level left
[7] = biological target: T2, Prostaglandin G/H synthase 2; assay: Inhibition of COX2 (unknown origin) using arachidonic acid as substrate preincubated for 20 mins followed by substrate addition measured at 1 sec interval up to 60 secs by chemiluminescence assay

inhibition [1]: 78%
Compound: COc1ccc(-c2nnc(N/N=C/c3cccc(OC)c3OC)nc2-c2ccc(OC)cc2)cc1

Compound: Cc1sc2nnn(-c3ccccc3Cl)c(=O)c2c1C
Activity (Mus musculus): 36.47%

Compound: COc1ccc(-n2c(S)nnc2Cn2nc(-c3ccccc3)c(-c3ccccc3)nc2=O)cc1
Activity [2]: 71.9 to 79.2%

Compound: O=c1nc(-c2ccccc2)c(-c2ccccc2)nn1Cc1nnc(Nc2ccccc2)s1
Activity [2]: 71.9 to 79.2%

pIC50 [3]: 5.00
Ratio IC50 [4]: 8.79
Compound: CCOC(=O)CSc1nnc(-c2ccc(S(C)(=O)=O)cc2)c(-c2ccc(F)cc2)n1

Compound: O=c1nc(-c2ccccc2)c(-c2ccccc2)nn1Cc1nnc(S)n1-c1ccccc1
Activity [2]: 71.9 to 79.2%

inhibition [1]: 78%
Compound: COc1ccc(-c2nnc(N/N=C/c3ccc4c(c3)OCO4)nc2-c2ccc(OC)cc2)cc1

Compound: O=c1nc(-c2ccccc2)c(-c2ccccc2)nn1Cc1nnc(Nc2ccccc2)o1
Activity (Rattus norvegicus [5]): 57.9 - 61.56%
Activity [2]: 71.9 to 79.2%

Compound: O=c1nc(-c2ccccc2)c(-c2ccccc2)nn1Cc1nnc(Nc2ccc([N+](=O)[O-])cc2)s1
Activity [2]: 71.9 to 79.2%

Compound: O=c1nc(-c2ccccc2)c(-c2ccccc2)nn1Cc1nnc(Nc2ccc([N+](=O)[O-])cc2)o1
Activity (Rattus norvegicus [5]): 57.9 - 61.56%
Activity [2]: 71.9 to 79.2%

Compound: O=c1nc(-c2ccccc2)c(-c2ccccc2)nn1Cc1nnc(S)n1-c1ccc([N+](=O)[O-])cc1
Activity [2]: 71.9 to 79.2%

Compound: Cc1ccc(-n2c(S)nnc2Cn2nc(-c3ccccc3)c(-c3ccccc3)nc2=O)cc1
Activity [2]: 71.9 to 79.2%

Compound: O=c1nc(-c2ccccc2)c(-c2ccccc2)nn1Cc1nnc(Nc2ccc(Cl)cc2)s1
Activity [2]: 71.9 to 79.2%

Compound: Cc1sc2nnn(-c3ccc(F)cc3)c(=O)c2c1C
Activity (Mus musculus): 34.12%

pIC50 [3]: 5.00
Ratio IC50 [4]: 8.79
Compound: CCOC(=O)CSc1nnc(-c2ccc(S(C)(=O)=O)cc2)c(-c2ccccc2)n1

Compound: COc1ccc(Nc2nnc(Cn3nc(-c4ccccc4)c(-c4ccccc4)nc3=O)o2)cc1
Activity (Rattus norvegicus [5]): 57.9 - 61.56%
Activity [2]: 71.9 to 79.2%

Compound: O=c1nc(-c2ccccc2)c(-c2ccccc2)nn1Cc1nnc(S)n1-c1ccc(Cl)cc1
Activity [2]: 71.9 to 79.2%

Compound: Cc1sc2nnn(-c3ccccc3)c(=O)c2c1C
Activity (Mus musculus): 70.82%

Compound: Cc1sc2nnn(-c3ccc(F)c(Cl)c3)c(=O)c2c1C
Activity (Mus musculus): 36.35%

Compound: Cc1ccc(Nc2nc(-c3ccccc3)c3c(n2)sc2c(Nc4ccc(S(=O)(=O)NC(=N)N)cc4)nnnc23)cc1
Activity (Rattus norvegicus [6]): 78.57%

Compound: Cc1ccc(Nc2nnc(Cn3nc(-c4ccccc4)c(-c4ccccc4)nc3=O)s2)cc1
Activity [2]: 71.9 to 79.2%

Compound: Cc1ccc(Nc2nc(-c3ccccc3)c3c(n2)sc2c(Cl)nnnc23)cc1
Activity (Rattus norvegicus [6]): 82.85%

pIC50 [7]: 4.70
Compound: CCOC(=O)c1cnn(-c2ccccn2)c1-n1nnc2ccccc2c1=O

pIC50 [3]: 5.00
Ratio IC50 [4]: 8.79
Compound: CCOC(=O)CSc1nnc(-c2ccc(S(C)(=O)=O)cc2)c(-c2ccc(Cl)cc2)n1

pIC50 [3]: 5.00
Ratio IC50 [4]: 8.79
Compound: CCOC(=O)CSc1nnc(-c2ccc(S(C)(=O)=O)cc2)c(-c2ccc(OC)cc2)n1

Compound: COc1ccc2c(c1)c(CC(=O)O)c(C)n2C(=O)c1ccc(Cl)cc1 [INDOMETHACIN]
Activity (Rattus norvegicus [6]): 80.96%
Activity (Rattus norvegicus [5]): 63.56%
Activity [2]: 82.7%

pIC50 [3]: 5.00
Ratio IC50 [4]: 8.79
Compound: CCOC(=O)CSc1nnc(-c2ccc(S(C)(=O)=O)cc2)c(-c2ccc(C)cc2)n1

Compound: Cc1ccc(Nc2nnc(Cn3nc(-c4ccccc4)c(-c4ccccc4)nc3=O)o2)cc1
Activity (Rattus norvegicus [5]): 57.9 - 61.56%
Activity [2]: 71.9 to 79.2%

Compound: O=C([O-])Cc1ccccc1Nc1c(Cl)cccc1Cl.[Na+] [DICLOFENAC SODIUM]
Activity (Mus musculus): 78.82%

Compound: O=c1nc(-c2ccccc2)c(-c2ccccc2)nn1Cc1nnc(Nc2ccc(Cl)cc2)o1
Activity (Rattus norvegicus [5]): 57.9 - 61.56%
Activity [2]: 71.9 to 79.2%

Compound: COc1ccc(Nc2nnc(Cn3nc(-c4ccccc4)c(-c4ccccc4)nc3=O)s2)cc1
Activity [2]: 71.9 to 79.2%

Compound: Cc1ccc(-c2cc(C(F)(F)F)nn2-c2ccc(S(N)(=O)=O)cc2)cc1 [CELECOXIB]
Activity (Rattus norvegicus [5]): 62.26%
Activity [2]: 80.3%
